# Laboratory results reported in publication PMC11396129, “Oxindole–benzothiazole hybrids as CDK2 inhibitors and anticancer agents: design, synthesis and biological evaluation” (BMC Chemistry, 2024).
# Experiments:
# breast cancer = test system: breast cancer; parameters: method as in PMID 16392802; details: cited from earlier work
# CDK2 = molecular target: T1, CDK2 (Homo sapiens, UniProt P24941); details: read-out: CDK2 inhibitory activity IC50; cited from earlier work
# T1 construct: purchased BPS Biosciences 79599
smiles,measurement,setting,value
"COc1ccc(-c2nc3cc(F)ccc3s2)cc1OC [GW 610 (VII), 2-(3,4-dimethoxyphenyl)-5-fluorobenzothiazole]",growth inhibitory activity in vitro,breast cancer,sub-nanomolar
"O=C1Nc2ccccc2/C1=C1/Nc2ccccc2/C1=N\O [indirubin-3′-oxime (IV), indirubin-3′-oxime]",IC50,CDK2,440 nM
"O=C(COc1ccccc1-c1nc2ccccc2s1)NN=C1C(=O)Nc2ccc([N+](=O)[O-])cc21 [Compound 9d, 2-(2-(Benzo[d]thiazol-2-yl)phenoxy)-N′-(5-nitro-2-oxoindolin-3-ylidene)acetohydrazide]",melting point,,275 to 277 °C
